What was measured:
[1] = target: CDK15/Cyclin Y (Homo sapiens, UniProt Q96Q40); test: NanoBRET live-cell target engagement, NanoLuc-CDK15/Cyclin Y in HEK-293; format: binding; conditions: CDK15/Y, 10µM
[2] = target: CDK2/Cyclin E1 (Homo sapiens, UniProt P24941); test: NanoBRET live-cell target engagement, CDK2-NanoLuc/Cyclin E1 in HEK-293; format: binding; conditions: CDK2/E1, 10µM
[3] = target: T1, CDK11A/Cyclin L2 (Homo sapiens, UniProt Q9UQ88); test: NanoBRET live-cell target engagement, CDK11A-NanoLuc/Cyclin L2 in HEK-293; format: binding; conditions: CDK11a/L2, 10µM
T1 sequence (Q9UQ88 1-783): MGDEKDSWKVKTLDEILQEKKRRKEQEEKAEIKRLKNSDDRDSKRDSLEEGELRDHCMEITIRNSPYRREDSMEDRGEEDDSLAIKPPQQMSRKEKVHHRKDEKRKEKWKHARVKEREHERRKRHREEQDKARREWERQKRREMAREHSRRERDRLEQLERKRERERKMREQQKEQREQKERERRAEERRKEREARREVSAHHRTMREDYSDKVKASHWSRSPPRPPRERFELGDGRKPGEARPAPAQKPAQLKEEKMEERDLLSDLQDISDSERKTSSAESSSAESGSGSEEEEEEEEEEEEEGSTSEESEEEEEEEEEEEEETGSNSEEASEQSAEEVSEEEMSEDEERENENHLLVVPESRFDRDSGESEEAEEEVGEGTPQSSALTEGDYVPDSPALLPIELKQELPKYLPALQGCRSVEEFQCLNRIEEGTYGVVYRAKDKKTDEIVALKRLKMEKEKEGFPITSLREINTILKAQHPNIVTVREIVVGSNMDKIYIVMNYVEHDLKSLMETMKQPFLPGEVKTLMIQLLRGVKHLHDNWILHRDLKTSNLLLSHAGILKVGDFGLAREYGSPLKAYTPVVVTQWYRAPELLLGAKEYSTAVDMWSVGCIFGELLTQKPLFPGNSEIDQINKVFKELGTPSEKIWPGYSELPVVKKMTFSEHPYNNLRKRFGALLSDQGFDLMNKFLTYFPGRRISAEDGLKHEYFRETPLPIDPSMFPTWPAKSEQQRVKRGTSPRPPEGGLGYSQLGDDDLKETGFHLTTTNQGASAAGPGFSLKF

[4] = target: CDK11B/Cyclin L2 (Homo sapiens, UniProt P21127); test: NanoBRET live-cell target engagement, CDK11B-NanoLuc/Cyclin L2 in HEK-293; format: binding; conditions: CDK11b/L2, 10µM
Sequence of CDK11B/Cyclin L2 (P21127 1-782 isoform P21127-2): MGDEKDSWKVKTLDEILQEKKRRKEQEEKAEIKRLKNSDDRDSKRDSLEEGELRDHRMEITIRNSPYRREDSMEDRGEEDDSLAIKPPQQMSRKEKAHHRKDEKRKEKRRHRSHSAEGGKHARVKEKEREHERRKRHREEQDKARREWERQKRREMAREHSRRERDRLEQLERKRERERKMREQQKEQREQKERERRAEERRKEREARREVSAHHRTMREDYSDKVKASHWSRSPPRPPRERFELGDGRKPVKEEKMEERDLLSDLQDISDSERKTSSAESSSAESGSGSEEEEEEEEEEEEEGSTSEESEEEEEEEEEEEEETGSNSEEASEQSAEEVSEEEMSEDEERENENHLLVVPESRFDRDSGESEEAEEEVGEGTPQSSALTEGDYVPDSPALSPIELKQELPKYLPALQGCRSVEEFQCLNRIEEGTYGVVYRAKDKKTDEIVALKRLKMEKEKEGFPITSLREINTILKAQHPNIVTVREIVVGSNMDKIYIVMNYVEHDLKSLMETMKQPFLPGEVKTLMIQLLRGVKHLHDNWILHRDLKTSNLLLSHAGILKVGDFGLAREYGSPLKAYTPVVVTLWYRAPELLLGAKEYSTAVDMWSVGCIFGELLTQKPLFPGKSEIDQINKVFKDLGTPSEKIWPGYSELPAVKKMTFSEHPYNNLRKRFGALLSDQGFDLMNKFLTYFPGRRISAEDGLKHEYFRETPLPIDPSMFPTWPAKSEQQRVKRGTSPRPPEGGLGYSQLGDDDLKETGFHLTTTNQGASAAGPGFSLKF

[5] = target: CDK12/Cyclin K (Homo sapiens, UniProt Q9NYV4); test: NanoBRET live-cell target engagement, CDK12-NanoLuc/Cyclin K in HEK-293; format: binding; conditions: CDK12/K, 10µM
[6] = target: CDK10/Cyclin L2 (Homo sapiens, UniProt Q15131); test: NanoBRET live-cell target engagement, CDK10-NanoLuc/Cyclin L2 in HEK-293; conditions: CDK10/L2, 10µM
Sequence of CDK10/Cyclin L2 (Q15131 whole entry): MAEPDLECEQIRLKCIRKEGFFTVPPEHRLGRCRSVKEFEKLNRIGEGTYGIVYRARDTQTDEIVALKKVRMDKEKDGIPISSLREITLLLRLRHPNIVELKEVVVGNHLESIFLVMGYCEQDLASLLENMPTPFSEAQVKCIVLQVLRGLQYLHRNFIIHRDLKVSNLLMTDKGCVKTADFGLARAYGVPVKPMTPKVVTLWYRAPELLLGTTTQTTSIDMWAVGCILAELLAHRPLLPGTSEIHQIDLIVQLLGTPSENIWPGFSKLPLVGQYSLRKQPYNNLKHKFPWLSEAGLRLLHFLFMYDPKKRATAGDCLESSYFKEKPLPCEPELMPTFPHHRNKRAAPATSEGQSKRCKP

[7] = target: CDK7 (Homo sapiens, UniProt P50613); test: NanoBRET live-cell target engagement, NanoLuc-CDK7 in HEK-293; format: binding; conditions: CDK7, 10µM
Sequence of CDK7 (P50613 whole entry): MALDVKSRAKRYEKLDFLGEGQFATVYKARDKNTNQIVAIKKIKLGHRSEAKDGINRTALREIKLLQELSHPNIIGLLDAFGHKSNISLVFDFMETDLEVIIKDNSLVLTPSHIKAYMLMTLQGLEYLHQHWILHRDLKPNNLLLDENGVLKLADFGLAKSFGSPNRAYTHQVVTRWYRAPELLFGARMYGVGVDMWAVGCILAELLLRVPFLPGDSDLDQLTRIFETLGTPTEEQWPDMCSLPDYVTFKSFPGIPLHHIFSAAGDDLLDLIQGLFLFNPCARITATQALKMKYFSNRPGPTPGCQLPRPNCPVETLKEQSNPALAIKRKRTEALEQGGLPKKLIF

[8] = target: CDK18/Cyclin Y (Homo sapiens, UniProt Q07002); test: NanoBRET live-cell target engagement, CDK18-NanoLuc/Cyclin Y in HEK-293; format: binding; conditions: CDK18/Y, 10µM
[9] = target: CDK19/Cyclin C (Homo sapiens, UniProt Q9BWU1); test: NanoBRET live-cell target engagement, NanoLuc-CDK19/Cyclin C in HEK-293; conditions: CDK19/C, 10µM
[10] = target: CDK16/Cyclin Y (Homo sapiens, UniProt Q00536); test: NanoBRET live-cell target engagement, CDK16-NanoLuc/Cyclin Y in HEK-293; format: binding; conditions: CDK16/Y; 10µM
[11] = target: CDK9/Cyclin K (Homo sapiens, UniProt P50750); test: NanoBRET live-cell target engagement, NanoLuc-CDK9/Cyclin K in HEK-293; format: binding; conditions: CDK9/K, 10µM
Sequence of CDK9/Cyclin K (P50750 whole entry): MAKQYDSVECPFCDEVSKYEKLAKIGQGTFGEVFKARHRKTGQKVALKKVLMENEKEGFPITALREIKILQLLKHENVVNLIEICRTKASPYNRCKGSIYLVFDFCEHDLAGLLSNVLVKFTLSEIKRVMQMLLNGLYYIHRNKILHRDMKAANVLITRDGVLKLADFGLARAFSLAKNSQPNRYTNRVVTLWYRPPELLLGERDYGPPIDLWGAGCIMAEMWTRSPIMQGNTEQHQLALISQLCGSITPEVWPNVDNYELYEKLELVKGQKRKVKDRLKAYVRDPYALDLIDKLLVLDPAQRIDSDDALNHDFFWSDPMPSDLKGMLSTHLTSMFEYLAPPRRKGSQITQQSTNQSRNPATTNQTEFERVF
Sequence of CDK9/Cyclin K (O75909 whole entry partner): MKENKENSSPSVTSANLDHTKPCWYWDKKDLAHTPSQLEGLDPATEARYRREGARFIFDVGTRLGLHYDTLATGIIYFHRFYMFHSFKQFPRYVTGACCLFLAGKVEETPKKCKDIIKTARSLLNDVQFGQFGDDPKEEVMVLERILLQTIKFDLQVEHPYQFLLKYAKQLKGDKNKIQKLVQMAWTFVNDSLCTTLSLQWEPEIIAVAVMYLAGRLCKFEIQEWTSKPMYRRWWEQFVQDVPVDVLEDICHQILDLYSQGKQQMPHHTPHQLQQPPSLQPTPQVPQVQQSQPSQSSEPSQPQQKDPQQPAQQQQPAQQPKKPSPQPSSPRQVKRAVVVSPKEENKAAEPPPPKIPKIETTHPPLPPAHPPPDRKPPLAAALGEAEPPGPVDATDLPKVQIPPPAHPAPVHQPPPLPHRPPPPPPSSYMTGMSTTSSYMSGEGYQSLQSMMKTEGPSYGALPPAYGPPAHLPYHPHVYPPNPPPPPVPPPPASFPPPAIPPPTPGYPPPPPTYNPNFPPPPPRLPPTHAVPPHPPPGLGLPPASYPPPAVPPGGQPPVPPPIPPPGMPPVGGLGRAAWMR

[12] = target: CDK6/Cyclin D1 (Homo sapiens, UniProt Q00534); test: NanoBRET live-cell target engagement, NanoLuc-CDK6/Cyclin D1 in HEK-293; format: binding; conditions: CDK6/D1, 10µM
Sequence of CDK6/Cyclin D1 (Q00534 whole entry): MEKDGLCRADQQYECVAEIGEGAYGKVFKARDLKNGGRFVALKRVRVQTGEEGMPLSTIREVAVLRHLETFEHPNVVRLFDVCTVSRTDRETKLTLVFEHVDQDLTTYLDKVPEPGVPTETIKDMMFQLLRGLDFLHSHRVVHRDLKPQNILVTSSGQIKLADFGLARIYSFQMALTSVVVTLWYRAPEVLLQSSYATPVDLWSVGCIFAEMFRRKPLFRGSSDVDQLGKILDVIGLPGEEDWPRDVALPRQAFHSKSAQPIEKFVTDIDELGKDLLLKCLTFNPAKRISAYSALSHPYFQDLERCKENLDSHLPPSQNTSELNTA
Sequence of CDK6/Cyclin D1 (P24385 whole entry partner): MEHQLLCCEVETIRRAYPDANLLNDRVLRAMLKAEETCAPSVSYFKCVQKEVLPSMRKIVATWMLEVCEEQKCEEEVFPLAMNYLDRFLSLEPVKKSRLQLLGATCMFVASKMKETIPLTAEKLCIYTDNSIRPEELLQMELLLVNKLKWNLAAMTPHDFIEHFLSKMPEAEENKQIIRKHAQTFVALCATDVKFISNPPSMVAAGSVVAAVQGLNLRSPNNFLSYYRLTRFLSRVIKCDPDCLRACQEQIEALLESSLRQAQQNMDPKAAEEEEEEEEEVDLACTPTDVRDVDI

[13] = target: CDK8/Cyclin C (Homo sapiens, UniProt P49336); test: NanoBRET live-cell target engagement, NanoLuc-CDK8/Cyclin C in HEK-293; format: binding; conditions: CDK8/C, 10µM
[14] = target: CDK14/Cyclin Y (Homo sapiens, UniProt O94921); test: NanoBRET live-cell target engagement, CDK14-NanoLuc/Cyclin Y in HEK-293; format: binding; conditions: CDK14/Y, 10µM
Sequence of CDK14/Cyclin Y (O94921 whole entry): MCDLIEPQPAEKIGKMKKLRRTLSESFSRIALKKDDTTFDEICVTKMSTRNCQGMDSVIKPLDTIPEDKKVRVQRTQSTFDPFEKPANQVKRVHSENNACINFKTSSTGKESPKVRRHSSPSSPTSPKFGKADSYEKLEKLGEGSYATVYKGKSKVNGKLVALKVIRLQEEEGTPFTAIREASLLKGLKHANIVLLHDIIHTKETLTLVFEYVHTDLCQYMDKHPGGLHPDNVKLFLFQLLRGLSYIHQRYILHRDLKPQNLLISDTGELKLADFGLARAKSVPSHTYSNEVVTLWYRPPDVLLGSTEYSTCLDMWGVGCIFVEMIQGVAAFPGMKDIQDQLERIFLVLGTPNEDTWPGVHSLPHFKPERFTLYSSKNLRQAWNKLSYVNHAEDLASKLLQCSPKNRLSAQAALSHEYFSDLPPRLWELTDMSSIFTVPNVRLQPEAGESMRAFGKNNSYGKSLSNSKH
Sequence of CDK14/Cyclin Y (Q8ND76 whole entry partner): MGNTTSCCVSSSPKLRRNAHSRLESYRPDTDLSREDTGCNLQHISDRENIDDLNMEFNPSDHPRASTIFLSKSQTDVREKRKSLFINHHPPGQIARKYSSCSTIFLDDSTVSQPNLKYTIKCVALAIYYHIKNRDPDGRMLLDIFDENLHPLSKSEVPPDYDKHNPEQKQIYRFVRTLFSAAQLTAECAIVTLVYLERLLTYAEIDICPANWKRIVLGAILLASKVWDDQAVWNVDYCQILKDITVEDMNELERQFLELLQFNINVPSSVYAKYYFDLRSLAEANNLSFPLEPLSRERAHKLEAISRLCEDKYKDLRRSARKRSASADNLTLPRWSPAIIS

[15] = target: CDK13/Cyclin K (Homo sapiens, UniProt Q14004); test: NanoBRET live-cell target engagement, CDK13-NanoLuc/Cyclin K in HEK-293; format: binding; conditions: CDK13/K, 10µM
[16] = target: CDK20/Cyclin H (Homo sapiens, UniProt Q8IZL9); test: NanoBRET live-cell target engagement, NanoLuc-CDK20/Cyclin H in HEK-293; format: binding; conditions: CDK20/H; 10µM
[17] = target: CDK1/Cyclin E1 (Homo sapiens, UniProt P06493); test: NanoBRET live-cell target engagement, CDK1-NanoLuc/Cyclin E1 in HEK-293; format: binding; conditions: CDK1/E1, 10µM
Sequence of CDK1/Cyclin E1 (P06493 whole entry): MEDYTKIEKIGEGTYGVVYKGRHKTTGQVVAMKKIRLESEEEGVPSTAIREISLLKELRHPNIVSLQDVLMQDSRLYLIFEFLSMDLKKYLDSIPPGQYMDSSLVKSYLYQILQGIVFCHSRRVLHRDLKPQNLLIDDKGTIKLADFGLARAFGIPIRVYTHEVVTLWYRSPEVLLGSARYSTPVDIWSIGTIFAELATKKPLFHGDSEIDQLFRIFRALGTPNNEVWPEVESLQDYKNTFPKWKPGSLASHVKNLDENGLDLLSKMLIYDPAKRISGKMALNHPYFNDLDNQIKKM
Sequence of CDK1/Cyclin E1 (P24864 whole entry partner): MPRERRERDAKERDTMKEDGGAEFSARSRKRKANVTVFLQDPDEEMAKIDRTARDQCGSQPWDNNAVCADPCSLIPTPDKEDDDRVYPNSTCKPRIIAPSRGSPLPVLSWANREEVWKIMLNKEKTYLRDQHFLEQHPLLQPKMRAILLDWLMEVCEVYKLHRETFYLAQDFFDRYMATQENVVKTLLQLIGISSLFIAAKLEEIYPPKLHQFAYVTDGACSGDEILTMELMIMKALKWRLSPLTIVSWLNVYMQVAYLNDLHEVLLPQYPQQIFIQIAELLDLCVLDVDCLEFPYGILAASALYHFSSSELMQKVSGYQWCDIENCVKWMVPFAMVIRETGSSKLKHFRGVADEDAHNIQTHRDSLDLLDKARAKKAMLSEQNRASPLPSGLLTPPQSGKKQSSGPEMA

[18] = target: CDK4/Cyclin D1 (Homo sapiens, UniProt P11802); test: NanoBRET live-cell target engagement, NanoLuc-CDK4/Cyclin D1 in HEK-293; format: binding; conditions: CDK4/D1, 10µM
[19] = target: CDK17/Cyclin Y (Homo sapiens, UniProt Q00537); test: NanoBRET live-cell target engagement, CDK17-NanoLuc/Cyclin Y in HEK-293; format: binding; conditions: CDK17/Y, 10µM
[20] = target: CDK5/CDK5R1 (Homo sapiens, UniProt Q00535); test: NanoBRET live-cell target engagement, CDK5-NanoLuc/CDK5R1 in HEK-293; format: binding; conditions: CDK5/CDK5R1, 10µM
[21] = target: CDK3/Cyclin E1 (Homo sapiens, UniProt Q00526); test: NanoBRET live-cell target engagement, CDK3-NanoLuc/Cyclin E1 in HEK-293; format: binding; conditions: CDK3/E1, 10µM
Sequence of CDK3/Cyclin E1 (Q00526 whole entry): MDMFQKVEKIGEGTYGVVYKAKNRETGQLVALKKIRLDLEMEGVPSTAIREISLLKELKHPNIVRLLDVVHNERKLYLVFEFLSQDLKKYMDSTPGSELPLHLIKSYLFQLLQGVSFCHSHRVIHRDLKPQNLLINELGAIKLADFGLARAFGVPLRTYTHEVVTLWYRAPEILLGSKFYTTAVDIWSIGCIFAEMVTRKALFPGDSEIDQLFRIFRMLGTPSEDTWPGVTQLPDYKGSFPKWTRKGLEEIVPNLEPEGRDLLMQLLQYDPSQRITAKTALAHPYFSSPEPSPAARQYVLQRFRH
Sequence of CDK3/Cyclin E1 (P24864 whole entry partner): as the sequence (P24864 whole entry partner) above

SMILES: CCC(CO)Nc1nc(Nc2cccc(-c3ccccn3)c2)c2ncn(C(C)C)c2n1.Cl.O [(R) - DRF053]
- Inhibition at 10µM (%) Replicate 1 [1]: 25.0%
- Inhibition at 10µM (%) Replicate 2 [1]: 29.8%
- Inhibition at 10µM (%) Average ([1]; average of replicates): 27.4%
- Inhibition at 10µM (%) Replicate 1 [2]: 75.6%
- Inhibition at 10µM (%) Replicate 2 [2]: 76.1%
- Inhibition at 10µM (%) Average ([2]; average of replicates): 75.9%
- Inhibition at 10µM (%) Replicate 1 [3]: 8.6%
- Inhibition at 10µM (%) Replicate 2 [3]: 33.3%
- Inhibition at 10µM (%) Average ([3]; average of replicates): 21.0%
- Inhibition at 10µM (%) Replicate 1 [4]: 11.4%
- Inhibition at 10µM (%) Replicate 2 [4]: 7.8%
- Inhibition at 10µM (%) Average ([4]; average of replicates): 9.6%
- Inhibition at 10µM (%) Replicate 1 [5]: 4.1%
- Inhibition at 10µM (%) Replicate 2 [5]: -13.6%
- Inhibition at 10µM (%) Average ([5]; average of replicates): -4.7%
- Inhibition at 10µM (%) Replicate 1 [6]: 13.4%
- Inhibition at 10µM (%) Replicate 2 [6]: 27.0%
- Inhibition at 10µM (%) Average ([6]; average of replicates): 20.2%
- Inhibition at 10µM (%) Replicate 1 [7]: 45.0%
- Inhibition at 10µM (%) Replicate 2 [7]: 59.3%
- Inhibition at 10µM (%) Average ([7]; average of replicates): 52.2%
- Inhibition at 10µM (%) Replicate 1 [8]: 37.9%
- Inhibition at 10µM (%) Replicate 2 [8]: 40.9%
- Inhibition at 10µM (%) Average ([8]; average of replicates): 39.4%
- Inhibition at 10µM (%) Replicate 1 [9]: 16.0%
- Inhibition at 10µM (%) Replicate 2 [9]: -0.8%
- Inhibition at 10µM (%) Average ([9]; average of replicates): 7.6%
- Inhibition at 10µM (%) Replicate 1 [10]: 15.7%
- Inhibition at 10µM (%) Replicate 2 [10]: 16.9%
- Inhibition at 10µM (%) Replicate 1 [11]: 18.8%
- Inhibition at 10µM (%) Replicate 2 [11]: 27.7%
- Inhibition at 10µM (%) Average ([11]; average of replicates): 23.2%
- Inhibition at 10µM (%) Replicate 1 [12]: 6.0%
- Inhibition at 10µM (%) Replicate 2 [12]: 6.7%
- Inhibition at 10µM (%) Average ([12]; average of replicates): 6.4%
- Inhibition at 10µM (%) Replicate 1 [13]: 6.6%
- Inhibition at 10µM (%) Replicate 2 [13]: -1.1%
- Inhibition at 10µM (%) Average ([13]; average of replicates): 2.7%
- Inhibition at 10µM (%) Replicate 1 [14]: 8.2%
- Inhibition at 10µM (%) Replicate 2 [14]: 16.5%
- Inhibition at 10µM (%) Average ([14]; average of replicates): 12.3%
- Inhibition at 10µM (%) Replicate 1 [15]: 7.7%
- Inhibition at 10µM (%) Replicate 2 [15]: -21.5%
- Inhibition at 10µM (%) Average ([15]; average of replicates): -6.9%
- Inhibition at 10µM (%) Replicate 1 [16]: 16.2%
- Inhibition at 10µM (%) Replicate 2 [16]: 18.8%
- Inhibition at 10µM (%) Replicate 1 [17]: 46.5%
- Inhibition at 10µM (%) Replicate 2 [17]: 41.5%
- Inhibition at 10µM (%) Average ([17]; average of replicates): 44.0%
- Inhibition at 10µM (%) Replicate 1 [18]: 19.9%
- Inhibition at 10µM (%) Replicate 2 [18]: 22.3%
- Inhibition at 10µM (%) Average ([18]; average of replicates): 21.1%
- Inhibition at 10µM (%) Replicate 1 [19]: 29.1%
- Inhibition at 10µM (%) Replicate 2 [19]: 25.1%
- Inhibition at 10µM (%) Average ([19]; average of replicates): 27.1%
- Inhibition at 10µM (%) Replicate 1 [20]: 69.5%
- Inhibition at 10µM (%) Replicate 2 [20]: 71.6%
- Inhibition at 10µM (%) Average ([20]; average of replicates): 70.6%
- Inhibition at 10µM (%) Replicate 1 [21]: 72.1%
- Inhibition at 10µM (%) Replicate 2 [21]: 71.8%
- Inhibition at 10µM (%) Average ([21]; average of replicates): 72.0%

Reference: publication PMC7265341, “Quantifying CDK inhibitor selectivity in live cells” (Nature Communications, 2020)
